Patent US20080161288A1, “COMPOUNDS” (Pfizer Inc., priority 2006, published 2008)

Key:
[1] = target: T1, bovine beta-2 adrenoceptor (Bos taurus, UniProt Q28044); experiment: cAMP assay in CHO cells transfected with the bovine beta-2 adrenoceptor; assay type: cell-based; conditions: cAMP (DiscoveRx Hit Hunter cAMP II) in CHO cells transfected with bovine beta-2 adrenoceptor, 30 minutes with compound, 0.5 mM IBMX
T1 construct: expressed in transfected cells; host or cells: CHO cells
Method in brief: (§1)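 Transfected CHO cells were preincubated 30 min with 0.5 mM IBMX in PBS. Compound (5×10^−12 to 10^−5 M) was then applied for 30 min at 37 °C, 5% CO2, followed by cAMP measurement with an enzyme-fragment complementation kit. Duplicates, EC50 from curve fitting.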

[2] = target: T2, porcine beta-2 adrenoceptor (Sus scrofa, UniProt Q28997); experiment: cAMP assay in CHO cells transfected with the porcine beta-2 adrenoceptor; assay type: cell-based; conditions: cAMP (DiscoveRx Hit Hunter cAMP II) in CHO cells transfected with porcine beta-2 adrenoceptor, 30 minutes with compound, 0.5 mM IBMX
T2 construct: expressed in transfected cells; host or cells: CHO cells
T2 sequence (Q28997 whole entry): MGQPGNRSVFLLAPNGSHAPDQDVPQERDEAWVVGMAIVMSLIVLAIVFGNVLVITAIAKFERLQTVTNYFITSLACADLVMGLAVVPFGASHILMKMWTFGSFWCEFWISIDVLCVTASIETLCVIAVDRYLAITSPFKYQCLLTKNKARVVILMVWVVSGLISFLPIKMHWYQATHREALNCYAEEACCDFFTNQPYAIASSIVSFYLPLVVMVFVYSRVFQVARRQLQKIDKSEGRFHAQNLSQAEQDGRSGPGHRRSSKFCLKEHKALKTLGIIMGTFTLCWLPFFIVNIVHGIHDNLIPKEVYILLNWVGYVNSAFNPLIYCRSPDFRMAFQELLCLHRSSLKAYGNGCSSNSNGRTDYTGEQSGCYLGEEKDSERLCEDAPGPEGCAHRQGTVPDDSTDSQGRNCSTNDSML
Method in brief: as §1

T1 sequence (Q28044 whole entry): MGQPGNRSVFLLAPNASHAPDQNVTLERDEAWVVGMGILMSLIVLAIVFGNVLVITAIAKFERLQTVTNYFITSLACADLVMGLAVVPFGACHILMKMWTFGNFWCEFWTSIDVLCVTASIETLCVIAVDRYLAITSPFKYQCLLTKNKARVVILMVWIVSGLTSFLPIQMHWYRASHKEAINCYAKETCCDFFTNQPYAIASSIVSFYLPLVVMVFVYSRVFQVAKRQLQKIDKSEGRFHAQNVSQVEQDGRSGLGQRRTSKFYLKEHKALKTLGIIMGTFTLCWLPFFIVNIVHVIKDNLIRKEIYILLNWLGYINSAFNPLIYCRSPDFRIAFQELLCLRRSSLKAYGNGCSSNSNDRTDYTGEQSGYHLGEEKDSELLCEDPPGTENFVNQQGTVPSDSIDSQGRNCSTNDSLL

Compound | EC50 [1] [nM] | EC50 [2] [nM]
COC(=O)c1ccc(CC[C@@H](C)N[C@@H]2CCn3c(=O)[nH]c4cccc(c43)[C@H]2O)cc1 (single isomer, unassigned) [Example 70, Methyl 4-[3-{[7-hydroxy-2-oxo-1,2,4,5,6,7-hexahydroimidazo[4,5,1-jk][1]benzazepin-6-yl]amino}butyl]benzoate] | 8.2 | 6.2
C[C@H](CCc1ccccc1O)N[C@@H]1CCn2c(=O)[nH]c3cccc(c32)[C@H]1O [Example 6f, 7-Hydroxy-6-{[3-(2-hydroxyphenyl)-1-methylpropyl]amino}-4,5,6,7-tetrahydroimidazo[4,5,1-jk][1]benzazepin-2(1H)-one] | 1 | 1.9
CC(CCc1ccc2c(c1)OCO2)NC1CCn2c(=O)[nH]c3cccc(c32)C1O (stereo not shown) [Example 12, 6-{[3-(1,3-Benzodioxol-5-yl)-1-methylpropyl]amino}-7-hydroxy-4,5,6,7-tetrahydroimidazo[4,5,1-jk][1]benzazepin-2(1H)-one] | 23.1 | 11.7
Cc1ccccc1CCC(C)NC1CCn2c(=O)[nH]c3cccc(c32)C1O (stereo not shown) [Example 13a, 7-hydroxy-6-{[1-Methyl-3-(2-methylphenyl)propyl]amino}-4,5,6,7-tetrahydroimidazo[4,5,1-jk][1]benzazepin-2(1H)-one] | 4.3 | 3.9
Cc1cc(CCC(C)NC2CCn3c(=O)[nH]c4cccc(c43)C2O)cc(C)c1O (stereo not shown) [Example 15, 7-Hydroxy-6-{[3-(4-hydroxy-3,5-dimethylphenyl)-1-methylpropyl]amino}-4,5,6,7-tetrahydroimidazo[4,5,1-jk][1]benzazepin-2(1H)-one] | 221 | 48.7
COc1ccc(CCC(C)NC2CCn3c(=O)[nH]c4cccc(c43)C2O)cc1 (stereo not shown) [Example 34, 7-Hydroxy-6-{[3-(4-methoxyphenyl)-1-methylpropyl]amino}-4,5,6,7-tetrahydroimidazo[4,5,1-jk][1]benzazepin-2(1H)-one] | 20.3 | 30.4
CC(CCc1ccccc1OC(C)C)NC1CCn2c(=O)[nH]c3cccc(c32)C1O (stereo not shown) [Example 35, 7-Hydroxy-6-{[3-(2-isopropoxyphenyl)-1-methylpropyl]amino}-4,5,6,7-tetrahydroimidazo[4,5,1-jk][1]benzazepin-2(1H)-one] | 7.3 | 1.8
CC(C=Cc1cccc(O)c1)NC1CCn2c(=O)[nH]c3cccc(c32)C1O (stereo not shown) [Example 41, 7-Hydroxy-6-{[3-(3-hydroxyphenyl)-1-methylprop-2-en-1-yl]amino}-4,5,6,7-tetrahydroimidazo[4,5,1-jk][1]benzazepin-2(1H)-one] | 13.3 | 6.6
